We go through eleven compounds from ChEMBL document CHEMBL1146971, “Discovery of novel heterocyclic factor VIIa inhibitors” (Bioorg Med Chem Lett, 2006).

One assay deals with T1, Coagulation factor VII (Homo sapiens, UniProt P08709).
T1 sequence (P08709 whole entry): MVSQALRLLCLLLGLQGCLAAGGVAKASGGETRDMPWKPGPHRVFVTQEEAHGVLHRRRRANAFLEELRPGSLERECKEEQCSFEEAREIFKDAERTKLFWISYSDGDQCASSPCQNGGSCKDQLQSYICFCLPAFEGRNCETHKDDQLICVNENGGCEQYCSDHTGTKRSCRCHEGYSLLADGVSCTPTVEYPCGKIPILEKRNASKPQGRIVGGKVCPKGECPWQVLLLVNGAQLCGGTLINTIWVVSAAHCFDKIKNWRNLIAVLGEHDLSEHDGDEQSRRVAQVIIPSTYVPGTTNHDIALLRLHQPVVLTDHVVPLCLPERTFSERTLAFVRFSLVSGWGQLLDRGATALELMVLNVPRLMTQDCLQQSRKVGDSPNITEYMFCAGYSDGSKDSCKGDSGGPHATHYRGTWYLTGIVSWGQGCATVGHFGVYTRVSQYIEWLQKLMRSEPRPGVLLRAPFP
The assay can be described thus: Binding affinity to f7a.

The species entered for the next assay is Homo sapiens. Briefly: Selectivity for f7a over trypsin.
In another assay the target is Coagulation factor X (Homo sapiens, UniProt P00742). The assay can be described thus: Binding affinity to f10a.
Coagulation factor X, sequence (P00742 41-179 limits assumed): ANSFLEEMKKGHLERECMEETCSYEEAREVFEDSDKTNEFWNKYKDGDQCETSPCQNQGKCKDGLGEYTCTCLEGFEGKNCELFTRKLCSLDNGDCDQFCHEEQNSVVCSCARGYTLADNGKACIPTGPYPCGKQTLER
Coagulation factor X, sequence (P00742 235-488 limits assumed): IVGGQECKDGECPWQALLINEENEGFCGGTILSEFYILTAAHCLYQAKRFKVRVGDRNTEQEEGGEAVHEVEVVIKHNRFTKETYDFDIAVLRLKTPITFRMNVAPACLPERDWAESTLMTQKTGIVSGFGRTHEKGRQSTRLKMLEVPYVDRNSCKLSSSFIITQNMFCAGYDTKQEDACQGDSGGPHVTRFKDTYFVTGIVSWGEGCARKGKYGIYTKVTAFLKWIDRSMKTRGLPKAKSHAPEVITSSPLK
The target of the next assay is Prothrombin (Homo sapiens, UniProt P00734). Briefly: Binding affinity to thrombin.
The target of a further assay is Trypsin (Homo sapiens, UniProt P07477+P07478+P35030). The assay can be described thus: Binding affinity to trypsin. The class given is protein assay.

`CN(C)CCNC(=O)NCc1cccc(-c2cc(CC(=O)O)cc(-c3cc4[nH]c(N)ccc-4n3)c2O)c1` returned a Ki on Coagulation factor VII of 1.4 µM. The Selectivity ratio in the assay filed under Homo sapiens was more than 100.

`CS(=O)(=O)c1cccc(-c2cc(CC(=O)O)cc(-c3cc4[nH]c(N)ccc-4n3)c2O)c1`: the Ki at Coagulation factor VII came out at 7.4 µM. Besides, the Selectivity ratio in the assay filed under Homo sapiens amounted to 16.

Consider `Nc1ccc2[nH]c(-c3cc(CC(=O)O)cc(-c4cccc([N+](=O)[O-])c4)c3O)nc2n1`, for which the Ki at Coagulation factor VII is 39 µM; at Coagulation factor X, more than 150 µM; at Prothrombin, more than 150 µM; at Trypsin it was more than 150 µM.

In the case of `NC(=O)Nc1cccc(-c2cc(CC(=O)O)cc(-c3cc4[nH]c(N)ccc-4n3)c2O)c1`, the Ki on Coagulation factor VII amounted to 12 µM. Besides, in the assay filed under Homo sapiens, the Selectivity ratio is more than 13.

For the compound `Nc1ccc2[nH]c(-c3cc(CC(=O)O)cc(-c4ccccc4)c3O)cc2n1`, the Ki on Coagulation factor VII was 2.4 µM. Besides, the Selectivity ratio in the assay filed under Homo sapiens worked out at 67.

For the compound `Nc1ccc2[nH]c(-c3cc(CC(=O)O)cc(-c4cccc([N+](=O)[O-])c4)c3O)cc2n1`, the Ki on Coagulation factor X stood at 3.5 µM; at Prothrombin, 44 µM; at Trypsin, 120 µM. The Selectivity ratio in the assay filed under Homo sapiens was 400.

`Nc1ccc2[nH]c(-c3cc(CC(=O)O)cc(-c4cccc(O)c4)c3O)cc2n1` yielded a Ki on Coagulation factor VII of 2.5 µM. For the same compound, the Selectivity ratio in the assay listed under Homo sapiens stood at 84.

Take `N=C(N)c1ccc2[nH]c(-c3cc(CC(=O)O)cc(-c4cccc([N+](=O)[O-])c4)c3O)cc2c1`: the Ki on Coagulation factor VII was 0.004 µM; at Coagulation factor X, 0.05 µM; at Prothrombin, 2.9 µM; at Trypsin, 0.4 µM.

`N=C(N)c1ccc2[nH]c(-c3cc(CC(=O)O)cc(-c4cccc([N+](=O)[O-])c4)c3O)nc2c1`: the figures for the Ki at Coagulation factor X, on Prothrombin and at Trypsin were 0.32 µM, more than 150 µM and 11 µM, respectively.

The compound `Nc1ccc2[nH]c(-c3cc(CC(=O)O)cc(-c4cccc(CNC(=O)Nc5ccccc5)c4)c3O)cc2n1` displayed a Ki at Coagulation factor VII of 0.02 µM. Moreover, the Selectivity ratio in the assay filed under Homo sapiens is more than 7000.

For `O=C(O)Cc1cc(-c2cccc([N+](=O)[O-])c2)c(O)c(-c2nc3ccccc3[nH]2)c1`, the Ki on Coagulation factor VII was 11 µM; on Coagulation factor X, more than 150 µM; on Prothrombin, more than 150 µM; at Trypsin it was more than 150 µM.

Broadly, the Ki is a dissociation constant, usually derived from enzyme kinetics or from competition with a known ligand. Higher therefore signals weaker binding.
